Laboratory results taken from patent publication US12298319B2, “Method for measuring alpha value of muscarinic M1 receptor positive allosteric modulators” (Takeda Pharmaceutical Company Limited, priority 2017, dated 2025).
Where a name gives a salt, the structure may show the parent alone.

Tests used:
[1] = test system: layer 5 pyramidal neurons; test: Electrophysiology, current clamp of layer 5 pyramidal neurons in mPFC slices; type: cell-based, mouse; details: bath application, Compound D at 10 μM
Procedure: Experiments were performed on coronal brain slices of the medial prefrontal cortex (mPFC) from 4-week-old male C57BL/6 mice. The animals were quickly sacrificed and the brain was placed in an ice-cold NMDG artificial cerebrospinal fluid (ACSF) (in mM): NMDG, 92; KCl, 2.5; CaCl2, 0.5; NaH2PO4, 1.25; MgSO4, 6; NaHCO3, 30; glucose, 25; HEPES, 20; thiourea, 2; Na-ascorbate, 5; and Na-pyruvate, 3) (Ting J. T. et al., Methods Mol Biol. 2014; 1183:221-42). Slices were cut at a thickness of 300 μm with a vibroslicer. Slices were initially transferred to a holding chamber containing NMDG aCSF for 15 minutes at 34° C. Slices were then transferred to a room temperature holding chamber for at least 1 h containing HEPES aCSF (in mM): NMDG, 92; KCl, 2.5; CaCl2, 2; NaH2PO4, 1.25; MgSO4, 2; NaHCO3, 30; glucose, 25; HEPES, 20; thiourea, 2; Na-ascorbate, 5; and Na-pyruvate, 3). Subsequently, the slices were transferred to the recording chamber, in which they were submerged and perfused with aCSF containing the following (in mM): NaCl, 124; KCl, 5; NaH2PO4, 1.2; MgCl2, 1.5; CaCl2, 2.5; glucose, 10; and NaHCO3, 24), at a flow rate of 1-2 ml/min. All buffers were continuously bubbled and saturated with carbogen (95% O2/5% CO2). Current clamp recordings were carried out at 32-33° C. from visually identified pyramidal neurons from layer 5 using a borosilicate pipette (5-7 MΩ) filled with intracellular solution (in mM): K-gluconate, 135; KCl, 4; HEPES, 10; EGTA, 0.2; MgATP, 4; Na2GTP, 0.3; pH 7.3 with KOH). Signals were acquired using a Multiclamp 700B amplifier and a Digidata 1440A interface board (Molecular Devices Japan, Tokyo, Japan), filtered between 2 kHz, sampled at 10 kHz, and analyzed with pClamp10 software.
M1Rs are known to contribute to the three cholinergic effects in layer 5 pyramidal neurons: the resting membrane potential (RMP) and physiological responses such as the after hyperpolarization (AHP) the after depolarization (ADP) that typically follow brief periods of action potential generation (Gulledge et al., J. Neurosci. 2009 Aug. 5; 29(31): 9888-9902). To investigate effects of M1 PAMs with different n value on brain function, cholinergic excitation by Compound D and Compound C were assessed. First, the muscarinic receptor agonist carbachol ([…] for 10 min) was tested by bath application (FIG. 13-A, FIG. 13-B, FIG. 13-C).

[2] = test system: scopolamine-induced cognitive deficits in rats; test: Novel object recognition task (NORT), scopolamine-induced memory deficits; type: in vivo, rat
Procedure: On the day before testing, Long Evans rats were allowed to habituate to the behavioral test room environment for over 1 h, and then they were allowed to habituate to the empty test box (a gray-colored polyvinyl chloride box (40×40×50 cm)) for 10 min individually. Testing was comprised of two 3-min trials called the acquisition and the retention trials. These trials were separated by a given inter-trial interval (ITI). On the testing day, in the acquisition trial, rats were allowed to explore two identical objects (A1 and A2) for 3 min. In the retention trial, rats were again allowed to explore a familiar object (A3) and a novel object (B) for 3 min. The object exploration was defined as rats' licking, sniffing or touching the object with limbs while sniffing. Leaning against the object to look upward, standing or sitting on the object was excluded. The exploration time of each object (A1, A2, A3 and B) in each trial was measured manually. Novel discrimination index (NDI) was calculated using the following equation: novel object interaction/total interaction×100(%).
The acquisition and the retention trials were separated by 4 h ITI. […] Scopolamine (0.1 mg/kg) was administered subcutaneously 30 min prior to the acquisition trial.
(§1) The acquisition and the retention trials were separated by 4 h ITI.
as §1

rats = test: Assessment of cholinergic side effects in rats
Procedure: SD Rats were placed individually into observation cages and acclimated for at least 1 h. […] The severity of diarrhea was scored as follows: 0, normal pellets; 1, wet but formed feces; 2, swollen or mucous feces; 3, severe watery diarrhea. For diarrhea, the number of rats and mice, in which more than or equal to 2 was scored, was counted. For fasciculation, the number of rats with marked fasciculation of both the upper and lower limbs was counted. For lacrimation, the number of rats, in which moderate to marked discharge (severer lacrimation than fluid around eyes) was induced, was counted. For salivation, the number of rats with severe salivation, but not just noticeably wet around mouth, was induced was counted. The maximum score during the observation was adopted.
(§2) For diarrhea, the number of rats scored more than or equal to 2 was counted. For fasciculation, the number of rats with marked fasciculation of both the upper and lower limbs was counted. For lacrimation, the number of rats in which moderate to marked discharge (severer lacrimation than fluid around eyes) was counted. For salivation, the number of rats with severe salivation, but not just noticeably wet around mouth, was counted. The maximum score during the observation was adopted. Data were presented as the number of incidence per total rats.
as §2, with “in which loose” for “scored more than”, “mucous stool, or diarrhea was induced” for “equal to 2”, “(severe” for “(severer”, “eyes) was caused” for “eyes)”, “mouth” for “mouth,”

[3] = carbachol 10 M [sic] for 10 min

C[N+](C)(C)CCOC(N)=O [Carbachol, carbachol]
after hyperpolarization (AHP) [1, 3]: suppressed AHP
resting membrane potential (RMP) [1, 3]: induced depolarization of the RMP
after depolarization (ADP) ([1]; carbachol for 10 min as printed): produced an ADP potential

COc1cc2c(cc1OC)C(=O)C(CC1CCN(Cc3ccccc3)CC1)C2 (stereo not shown) [Donepezil, Donepezil hydrochloride]
NDI in NORT, scopolamine-induced deficits ([2]; 0.3 and 1 mg/kg p.o., rats, P≤0.025): significantly increased NDI
minimal efficacy dose in rats (cognitive improvement) ([2]; NORT, scopolamine-treated rats, p.o.): 0.3 mg/kg
NDI ([2]; scopolamine-treated rats, 0.1 mg/kg p.o. alone, Example 28): 52.7%
NDI ([2]; scopolamine-treated rats, donepezil 0.1 mg/kg p.o. alone, Example 29): 49.5%
cholinergic side effects in addition to diarrhea (rats; 10 mg/kg p.o., rats): induced salivation, myosis, and fasciculation
diarrhea induction in rats (score) (rats; P≤0.025 at 10 and 30 mg/kg p.o.): induced diarrhea dose-dependently

CCN(C)C(=O)Oc1cccc([C@H](C)N(C)C)c1 [Rivastigmine, rivastigmine]
NDI ([2]; scopolamine-treated rats, rivastigmine 0.1 mg/kg i.p. alone, Example 31): 53.9%
